In US20220372040A1, “METTL3 MODULATORS” (Accent Therapeutics, Inc., priority 2020, published 2022):
pIC50: −log10 of the molar value.

Assays:
METTL16 = target: T1, METTL16 (Homo sapiens, UniProt Q86W50); assay: METTL16 assay (3H-SAM flashplate scintillation); format: biochemical; details: METTL16 100 nM, RNA 50 nM, 3H-SAM 200 nM, SAM 800 nM, 20 min
T1 sequence (Q86W50 1-562): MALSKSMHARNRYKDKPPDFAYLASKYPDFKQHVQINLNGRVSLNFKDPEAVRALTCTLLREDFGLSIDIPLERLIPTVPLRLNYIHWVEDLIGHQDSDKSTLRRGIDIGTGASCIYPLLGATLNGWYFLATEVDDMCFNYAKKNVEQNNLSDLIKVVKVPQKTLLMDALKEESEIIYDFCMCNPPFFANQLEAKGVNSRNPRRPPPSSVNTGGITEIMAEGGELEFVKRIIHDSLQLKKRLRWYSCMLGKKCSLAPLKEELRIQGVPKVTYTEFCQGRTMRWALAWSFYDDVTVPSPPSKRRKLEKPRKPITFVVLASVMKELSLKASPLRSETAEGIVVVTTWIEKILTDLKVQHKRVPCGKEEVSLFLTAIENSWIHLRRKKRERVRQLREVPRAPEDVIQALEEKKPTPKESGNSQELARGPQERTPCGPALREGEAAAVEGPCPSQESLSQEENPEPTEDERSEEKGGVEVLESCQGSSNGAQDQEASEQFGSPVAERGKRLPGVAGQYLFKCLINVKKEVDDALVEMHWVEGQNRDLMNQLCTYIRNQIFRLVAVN
Outline: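 Radiometric methyltransferase reaction at ambient temperature in 20 mM HEPES pH 7.5, 50 mM KCl, 1 mM DTT, with 100 nM enzyme preincubated 5 min with compound. It was started with 50 nM 3′-biotinylated RNA, 200 nM 3H-SAM plus 800 nM cold SAM, run 20 min, then quenched with excess cold SAM. Product was captured on streptavidin flashplates and scintillation-counted.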

PRMT5-MEP50 = PRMT5-MEP50 (Homo sapiens, UniProt O14744); assay: PRMT5 assay (3H-SAM flashplate scintillation); format: biochemical; details: PRMT5-MEP50 2.5 nM, histone H4 peptide 100 nM, 3H-SAM 250 nM, 60 min
Outline: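 PRMT5-MEP50 (2.5 nM final) preincubated 5 min with compound, then reacted 60 min at ambient temperature with 100 nM biotinylated N-acetyl histone H4 peptide and 250 nM 3H-SAM in 20 mM Tris-HCl pH 8.0, 1 mM DTT, 0.01% Tween. Quenched with 15 μM cold SAM; methylated peptide captured on streptavidin flashplates, scintillation counted.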

MOLM-13 cells = assay: MOLM-13 48 Hour cell proliferation assay (Cell Titer-Glo); format: cell-based; details: Homo sapiens
Procedure: MOLM-13 48 Hour Cell Proliferation Assay
MOLM-13 (DSMZ) cells were seeded at 1000 cells per well in a volume of 44 μL in a Falcon 384-well tissue culture treated clear bottom microplate in RPMI 1640 media containing 10% fetal bovine serum using a Multidrop Combi (ThermoFisher Scientific). Cells were incubated overnight at 37° C. in a humidified tissue culture incubator. The Mosquito® HTS Liquid Handler was used to make a compound/media intermediate plate by aliquoting […] of compound from the initial compound dilution plate (concentrations ranging from 10.0 mM to 38.0 nM in 100% DMSO) into a V bottom 384-well screen matrix plate containing 49 µL of media containing the appropriate serum (50-fold dilution, 2% DMSO). The Apricot liquid handling system was used to transfer […] compounds from the intermediate plate into the Falcon 384-well tissue culture plate containing 44 μL cells (10-point, 4-fold dilution spanning concentrations 25.0 μM to […], 0.25% DMSO final), and placed in a humidified tissue culture incubator at 37° C. After 48 hours, 25 μL of Cell Titer-Glo reagent (Promega) was added to each well using a Multidrop Combi. The plate was protected from light and placed on an IKA plate shaker for at 300 rpm for 10 minutes at room temperature. The plate was read on an EnVision plate reader (Perkin Elmer) using the Ultra Sensitive Luminescence protocol. Data analysis was performed by normalizing the raw luminescence units to an average of the positive control values for staurosporine (100% cell death) and the negative control values for DMSO (0% cell death). An IC50 was calculated using a 4-parameter logistic nonlinear regression model in GraphPad Prism.

[1] = system: m^6 A in cellular mRNA of MOLM-13 cells; assay: m^6 A-mRNA LC-MS/MS assay (m^6 A cellular assay); format: cell-based; details: Homo sapiens, 24 hours incubation, LC-MS/MS of m^6 A/A in mRNA
Procedure: m^6 A-mRNA LC-MS/MS Assay
5×10^6 MOLM-13 (DSMZ) cells were seeded into 10 cm dishes in RPMI 1640 media containing 10% fetal bovine serum and placed in a humidified tissue culture incubator at 37° C. overnight. Compounds were resuspended in 100% DMSO and dosed into each dish at a fixed concentration to comprise an 8-point dose response with a 4-fold serial dilution ranging from 25 μM to 1.5 nM in 0.25% DMSO final and allowed to incubate for 24 hours in a humidified tissue culture incubator at 37° C. Cells were harvested by centrifugation followed by mRNA extraction using DTRECT Dynabeads mRNA DTRECT kit (Life Technologies). mRNA was quantified on NanoDrop spectrophotometer (Thermo Fisher Scientific) and digested into single nucleosides using Nucleoside Digestion Mix (New England Biolabs). Nucleosides are quantified with retention time on a BEH […] column (Waters) and the nucleoside-to-base ion mass transition of 282.1-150.1 (m^6 A) and 268-136 (A) on an API 6500+ triple quadrupole mass spectrometer. Quantification is performed in comparison with the standard curve, obtained from pure nucleoside standards (Selleck Chemicals) running with the same batch of samples. Percentage m^6 A in cellular mRNA is calculated as 100*(m^6 A/A).

METTL3/METTL14 = METTL3/METTL14 (Homo sapiens, UniProt Q86U44); assay: METTL3-14 standard enzyme assay (3H-SAM flashplate scintillation); format: biochemical; details: METTL3/METTL14 2.5 nM, RNA 100 nM, 3H-SAM 100 nM, 30 min
Outline: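 METTL3/METTL14 (2.5 nM final) preincubated 5 min with compound in 20 mM HEPES pH 7.5, 50 mM KCl, 250 μM MgCl2, 1 mM DTT, ambient temperature; started with 100 nM 3′-biotinylated RNA (UCUGGACUAAA) and 100 nM 3H-SAM. After 30 min, quenched with 15 μM cold SAM; methylated RNA captured on streptavidin flashplates and counted by scintillation.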

METTL1/WDR4 = METTL1/WDR4 (Homo sapiens, UniProt Q9UBP6); assay: METTL1 assay (3H-SAM flashplate scintillation); format: biochemical; details: METTL1/WDR4 6.25 nM, RNA 25 nM, 3H-SAM 60 nM, 20 min; read-out: METTL1 IC50
Outline: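 Radiometric methyltransfer by METTL1/WDR4 (6.25 nM f.c., 5 min preincubation) at ambient temperature in HEPES pH 7.5, KCl, MgCl2, DTT; started with 25 nM 3′-biotinylated RNA and 60 nM 3H-SAM, run 20 min, quenched with 15 μM cold SAM. Product captured on streptavidin flashplates (2 h, 25° C), counted by scintillation.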

Sequence of PRMT5-MEP50 (O14744 whole entry): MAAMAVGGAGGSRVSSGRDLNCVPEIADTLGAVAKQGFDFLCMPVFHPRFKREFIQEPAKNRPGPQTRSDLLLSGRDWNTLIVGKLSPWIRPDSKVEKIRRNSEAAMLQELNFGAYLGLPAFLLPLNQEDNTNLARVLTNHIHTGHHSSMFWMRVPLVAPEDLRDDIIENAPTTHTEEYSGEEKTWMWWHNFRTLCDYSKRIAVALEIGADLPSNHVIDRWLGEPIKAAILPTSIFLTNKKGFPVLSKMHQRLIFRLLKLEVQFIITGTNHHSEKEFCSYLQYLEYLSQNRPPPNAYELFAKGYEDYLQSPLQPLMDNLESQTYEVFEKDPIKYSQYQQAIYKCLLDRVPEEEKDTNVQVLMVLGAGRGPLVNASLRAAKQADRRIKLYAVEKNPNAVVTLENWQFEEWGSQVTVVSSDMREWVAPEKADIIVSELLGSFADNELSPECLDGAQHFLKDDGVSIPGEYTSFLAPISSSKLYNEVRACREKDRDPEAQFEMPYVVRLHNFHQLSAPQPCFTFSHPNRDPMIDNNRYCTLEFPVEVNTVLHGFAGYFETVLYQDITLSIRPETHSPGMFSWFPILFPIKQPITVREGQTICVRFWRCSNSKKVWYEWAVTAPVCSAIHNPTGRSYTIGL
Sequence of PRMT5-MEP50 (Q9BQA1 whole entry partner): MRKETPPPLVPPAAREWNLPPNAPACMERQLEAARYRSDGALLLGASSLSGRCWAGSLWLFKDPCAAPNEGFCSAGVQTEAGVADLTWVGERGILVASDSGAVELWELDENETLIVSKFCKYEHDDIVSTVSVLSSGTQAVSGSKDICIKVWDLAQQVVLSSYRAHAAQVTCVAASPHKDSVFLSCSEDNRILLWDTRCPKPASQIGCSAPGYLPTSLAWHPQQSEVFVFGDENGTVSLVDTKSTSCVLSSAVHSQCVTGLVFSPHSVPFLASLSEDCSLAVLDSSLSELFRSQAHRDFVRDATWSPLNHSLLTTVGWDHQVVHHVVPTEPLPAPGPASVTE
Sequence of METTL3/METTL14 (Q86U44 whole entry, species assumed): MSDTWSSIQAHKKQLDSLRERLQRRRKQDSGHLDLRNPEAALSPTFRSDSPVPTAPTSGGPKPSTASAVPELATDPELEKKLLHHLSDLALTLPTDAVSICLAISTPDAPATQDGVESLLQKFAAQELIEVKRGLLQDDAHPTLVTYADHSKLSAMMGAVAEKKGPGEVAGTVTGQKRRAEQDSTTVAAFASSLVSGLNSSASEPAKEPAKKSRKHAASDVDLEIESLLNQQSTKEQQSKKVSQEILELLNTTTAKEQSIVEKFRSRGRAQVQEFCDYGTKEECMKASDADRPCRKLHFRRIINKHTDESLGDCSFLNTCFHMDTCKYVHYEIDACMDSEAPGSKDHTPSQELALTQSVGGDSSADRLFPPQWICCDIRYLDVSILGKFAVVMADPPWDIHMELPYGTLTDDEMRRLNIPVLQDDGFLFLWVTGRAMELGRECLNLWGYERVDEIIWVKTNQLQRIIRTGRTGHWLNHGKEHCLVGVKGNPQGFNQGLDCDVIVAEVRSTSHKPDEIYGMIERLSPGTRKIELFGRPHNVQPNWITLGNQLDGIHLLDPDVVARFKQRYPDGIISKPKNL
Sequence of METTL3/METTL14 (Q9HCE5 whole entry partner, species assumed): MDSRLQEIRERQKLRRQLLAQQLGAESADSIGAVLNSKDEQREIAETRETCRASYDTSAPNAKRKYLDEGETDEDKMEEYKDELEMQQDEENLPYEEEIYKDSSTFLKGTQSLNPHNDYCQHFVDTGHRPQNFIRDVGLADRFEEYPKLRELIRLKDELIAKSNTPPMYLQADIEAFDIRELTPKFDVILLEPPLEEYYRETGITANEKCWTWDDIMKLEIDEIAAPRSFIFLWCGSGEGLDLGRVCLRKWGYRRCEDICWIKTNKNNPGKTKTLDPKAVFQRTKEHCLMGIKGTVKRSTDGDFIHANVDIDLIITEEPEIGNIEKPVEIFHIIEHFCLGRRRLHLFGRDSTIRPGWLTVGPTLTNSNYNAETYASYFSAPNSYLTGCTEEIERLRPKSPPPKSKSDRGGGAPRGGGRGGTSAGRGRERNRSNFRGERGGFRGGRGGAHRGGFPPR
Sequence of METTL1/WDR4 (Q9UBP6 whole entry, species assumed): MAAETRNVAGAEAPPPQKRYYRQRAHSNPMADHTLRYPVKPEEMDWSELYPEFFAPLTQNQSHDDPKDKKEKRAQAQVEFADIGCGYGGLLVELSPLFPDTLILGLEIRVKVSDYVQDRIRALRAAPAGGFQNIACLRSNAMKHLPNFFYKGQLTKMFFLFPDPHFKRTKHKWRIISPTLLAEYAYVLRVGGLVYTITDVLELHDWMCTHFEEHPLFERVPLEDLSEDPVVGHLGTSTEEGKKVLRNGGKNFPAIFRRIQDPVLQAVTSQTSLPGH
Sequence of METTL1/WDR4 (P57081 whole entry partner, species assumed): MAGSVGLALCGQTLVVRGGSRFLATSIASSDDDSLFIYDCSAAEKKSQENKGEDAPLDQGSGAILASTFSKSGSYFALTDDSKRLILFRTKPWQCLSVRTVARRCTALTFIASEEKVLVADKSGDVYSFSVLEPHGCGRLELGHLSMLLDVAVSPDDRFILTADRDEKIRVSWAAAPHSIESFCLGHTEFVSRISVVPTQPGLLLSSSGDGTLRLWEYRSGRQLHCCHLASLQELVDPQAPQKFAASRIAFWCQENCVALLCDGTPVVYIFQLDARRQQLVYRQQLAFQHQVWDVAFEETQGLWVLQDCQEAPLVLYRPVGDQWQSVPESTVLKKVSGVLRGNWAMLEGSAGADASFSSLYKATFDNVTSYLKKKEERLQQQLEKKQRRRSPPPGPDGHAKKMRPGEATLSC

SMILES | pIC50 (METTL16) | pIC50 (PRMT5-MEP50) | pIC50 (MOLM-13 cells) | pIC50 [1] | pIC50 (METTL3/METTL14) | pIC50 (METTL1/WDR4)
CNc1ccc2ccc(OCc3cncc(-c4c(C)[nH]c5c(N)ncnc45)c3)cc2n1 [Compound I-25] | < 6.00 | < 6.00 | ≤ 5.00 | ≤ 5.00 | > 8.00 | 
CNc1ccc2ccc(OCc3cncc(-c4c[nH]c5c(N)ncnc45)c3)cc2n1 [Compound I-47, 7-[(5-{4-amino-5H-pyrrolo[3,2-d]pyrimidin-7-yl}pyridin-3-yl)methoxy]-N-methylquinolin-2-amine] | < 6.00 | < 6.00 | ≤ 5.00 | ≤ 5.00 | > 8.00 | 
CCc1cc(NCCOC)c2ccc(OCc3cncc(-n4ccc5c(N)ncnc54)c3)cc2n1 [Compound I-16] |  | < 6.00 | 5.00 to 6.00 | 5.00 to 6.00 | > 8.00 | < 6.00

Continued, in another order:

pIC50 (METTL16) | pIC50 (PRMT5-MEP50) | pIC50 (MOLM-13 cells) | pIC50 [1] | pIC50 (METTL3/METTL14) | SMILES | pIC50 (METTL1/WDR4)
< 6.00 | < 6.00 | 5.00 to 6.00 | 5.00 to 6.00 | > 8.00 | CCNc1ccc2ccc(OCc3cncc(-n4cc(Cl)c5c(N)ncnc54)c3)cc2n1 [Compound I-59] | 
< 6.00 | < 6.00 | > 6.00 | 5.00 to 6.00 | > 8.00 | CNc1ccc2ccc(OCc3cncc(-n4ccc5c(N)ncnc54)c3)cc2n1 [Compound I-60] | 
< 6.00 | < 6.00 | ≤ 5.00 | ≤ 5.00 | > 8.00 | CCc1cc(N)c2ccc(OCc3cncc(-n4ccc5c(N)ncnc54)c3)cc2n1 [Compound I-45] | 
